These are literature values, as cited in patent publication US11026933B2, “Compositions and methods for treatment of cancer” (Children's Hospital Medical Center, priority 2016, dated 2021).

For data set [1], the target named is T1, FOXM1 (Homo sapiens, UniProt Q08050).
T1 sequence (Q08050 1-763): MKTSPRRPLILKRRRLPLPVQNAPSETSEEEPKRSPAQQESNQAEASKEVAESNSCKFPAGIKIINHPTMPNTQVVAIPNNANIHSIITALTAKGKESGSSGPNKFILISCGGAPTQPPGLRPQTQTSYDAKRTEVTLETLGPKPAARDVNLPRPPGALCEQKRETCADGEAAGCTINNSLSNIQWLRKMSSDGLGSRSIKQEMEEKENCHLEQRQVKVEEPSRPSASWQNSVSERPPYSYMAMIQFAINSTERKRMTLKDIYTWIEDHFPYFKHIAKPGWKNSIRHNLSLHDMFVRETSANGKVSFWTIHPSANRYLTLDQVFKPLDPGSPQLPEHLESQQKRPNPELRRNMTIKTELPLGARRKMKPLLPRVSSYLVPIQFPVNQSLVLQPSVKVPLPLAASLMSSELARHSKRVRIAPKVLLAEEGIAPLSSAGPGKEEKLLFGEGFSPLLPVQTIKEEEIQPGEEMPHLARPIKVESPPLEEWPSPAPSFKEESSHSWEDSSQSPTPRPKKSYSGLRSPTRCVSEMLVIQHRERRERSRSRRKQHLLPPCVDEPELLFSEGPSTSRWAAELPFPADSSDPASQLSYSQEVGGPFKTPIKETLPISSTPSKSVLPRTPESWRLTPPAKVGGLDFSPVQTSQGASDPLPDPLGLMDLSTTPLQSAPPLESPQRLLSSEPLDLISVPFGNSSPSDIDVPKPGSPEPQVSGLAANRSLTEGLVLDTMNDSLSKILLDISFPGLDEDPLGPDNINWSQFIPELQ
The conditions noted are these: Halasi and Gartel, 2013.

In data set [2] the test system is proteasome. The conditions noted are these: Halasi and Gartel, 2013.
Data set [3] addresses T1, FOXM1. Particulars: Halasi and Gartel, 2013. This is another data set of the same source.
The target in data set [4] is T1, FOXM1. Particulars: Gormally et al., 2014.

In the case of `C=C(NC(=O)C(=C)NC(=O)c1csc(C2=N[C@@H]3c4csc(n4)[C@H]4NC(=O)c5csc(n5)[C@H]([C@](C)(O)[C@@H](C)O)NC(=O)[C@H]5CSC(=N5)/C(=C/C)NC(=O)[C@H]([C@@H](C)O)NC(=O)c5csc(n5)[C@]3(CC2)NC(=O)[C@H](C)NC(=O)C(=C)NC(=O)[C@H](C)NC(=O)[C@H]([C@@H](C)CC)N[C@@H]2C=Cc3c([C@H](C)O)cc(nc3[C@H]2O)C(=O)O[C@@H]4C)n1)C(N)=O` [thiostrepton], the “inhibition of FOXM1 in cultured tumor cells” value in data set [1] is “inhibited FOXM1”. Besides, the proteasome inhibition result in data set [2] is given as “found to be proteasome inhibitors”. Besides, in data set [3], the “inhibition of FOXM1 in mouse tumor models” value is on record as “inhibited FOXM1”.

Consider `Nc1c(C(=O)Nc2ccc(F)cc2)sc2nc(-c3cccs3)cc(C(F)(F)F)c12` [FDI-6], for which, in data set [4], the “FOXM1 binding to DNA” value is listed as “blocked FOXM1 binding to DNA” and the “binding to FOXM1 protein” value is on record as “directly bound to FOXM1 protein”.

With `C=C(NC(=O)C(=C)NC(=O)c1csc(C2=N[C@@H]3c4csc(n4)[C@H]4NC(=O)c5csc(n5)[C@H]([C@](C)(O)[C@@H](C)O)NC(=O)[C@H]5CSC(=N5)/C(=C/C)NC(=O)[C@H]([C@@H](C)O)NC(=O)c5csc(n5)[C@]3(CC2)NC(=O)[C@H](C)NC(=O)C(=C)NC(=O)C(=C)NC(=O)[C@H](C(C)C)N[C@@H]2C=Cc3c([C@H](C)O)cc(nc3[C@H]2O)C(=O)O[C@@H]4C)n1)C(N)=O` [Siomycin A], in data set [1], the “inhibition of FOXM1 in cultured tumor cells” value is on record as “inhibited FOXM1”. Besides, the proteasome inhibition entry in data set [2] is “found to be proteasome inhibitors”. For the same compound, the “inhibition of FOXM1 in mouse tumor models” value in data set [3] was “inhibited FOXM1”.
